Measurements published in patent US8507547B2, “Anti-fatigue agents and oral compositions containing andrographolide as active ingredient” (Suntory Holdings Limited, priority 2007, dated 2013).

Key:
[1] = Safety of administered andrographolide (1000 mg per kilogram of body weight); type: in vivo; settings: 1000 mg of andrographolide per kilogram of body weight
Description: Andrographis paniculata containing andrographolide has conventionally been taken in orally and is considered to be infinitely safe. […] It should be noted, however, that there is a report saying that, when an infusion (0.5 g per mouse) or a water extract (1 g of crude drug per mouse) of Andrographis paniculata was injected into abdominal cavities of two mice, they died within 24 hours (Chuyakudaijiten, First Issue, Vol. 3). […] Accordingly, the andrographolide in the composition of the present invention is an active ingredient that is infinitely safe. Thus the amount of andrographolide to be contained is not particularly limited, as long as the amount is adequate to produce a desired effect and not to be toxic; the amount can be appropriately determined according to targets, pathological condition and the stage of illness, impact on taste (slightly bitter), and other factors.

Balb/c mice = assay: Water-immersion and sleep-disturbance test (weight-loaded forced swimming test, swimming time); type: in vivo
From the text: The first test is measurement of a swimming time in a water-immersion and sleep-disturbance test. This is described in detail below in Example 1. Mice raised in an environment, such as a water-immersed environment, where they were not allowed to take enough sleep or to take a comfortable posture so that they could take neither physical nor mental rest were weighted and forced to swim, and a length of time that passed until noses of the mice sank under the water for a period of 10 seconds or longer was measured (weight-loaded forced swimming test) to determine their fatigue level.
That is to say, since this animal model is a physical and mental fatigue model as well as an organ fatigue model described below, anti-fatigue action against physical and/or mental fatigue would be confirmed if the swimming time becomes longer as a result of administration of the test substance. Such anti-fatigue action is considered to be involved in reduction in fatigue stress, maintenance of physical energy under fatigue conditions (enhancement of body strength), improvement in endurance, and the like.
Effect of andrographolide on fatigue from water immersion and sleep disturbance was examined using a partially modified method of Tanaka et al. (Neuroscience Let. 352, 159-162, 2003). […] Four out of the five groups were reared as water-immersed groups; the groups were kept in cages in such a manner that each of the cages was filled with tap water at 23° C. with a water depth of 7 mm, instead of a floor covering, so that the mice were immersed in water and deprived of sleep. The mice were immersed in water for two days, andrographolide (Aldrich corp., purity 98%) was forcibly administered orally to the mice with doses of 0.5, 2, 8 mg per kilogram of body weight once daily during the two days (water-immersed and andrographolide-administered group). As a control group, one of the groups was immersed in water for two days, and distilled water was forcibly given orally to the group once daily during the two days (water-immersed control group). The remaining one of the five groups was reared as a normally-reared group; this group was kept in a cage with a normal floor covering, and distilled water was forcibly given orally to the group once daily during the two-day rearing (normally-reared control group). After the two days, each of the mice was provided with a weight corresponding to 8% of its body weight, which weight was attached to its tale, and then the mice were forced to swim in a water tank having a diameter of 18 cm and filled with water having a depth of 30 cm. A length of time that passed until the mice sank under water for a period of 10 seconds or longer (swimming time) was measured (weight-loaded forced swimming test).
The swimming time of the mice of the water-immersed group was shorter than that of the mice of the normally-reared group because of fatigue from the water immersion and sleep disturbance. The effect of andrographolide on the fatigue from the water immersion and sleep disturbance was examined by determining recovery of a reduction in the swimming time of the mice of the water-immersed group after the administration of andrographolide.
In accordance with the procedure described in Example 1, effect on water-immersion and sleep-disturbance fatigue was examined in a case in which andrographolide was administered alone to mice, a case in which alpha-lipoic acid was administered alone to mice, and a case in which a combination of andrographolide and alpha-lipoic acid was administered to mice. Eight-week-old male Balb/c mice were used as a test animal. […] Four out of the five groups served as water-immersed groups, and each of the groups was kept in a cage filled with tap water at 23° C. with a water depth of 7 mm, instead of a floor covering, so that the mice were immersed in water and deprived of sleep. […]

[2] = test system: fatigue animal models such as mice and rats; assay: Fatigue animal models such as mice and rats (summary of effective intake); type: in vivo
Description: Accordingly, the amount of andrographolide to be contained in the composition of the present invention is 0.01-500 mg per kilogram of body weight, preferably 0.1-50 mg per kilogram of body weight, more preferably 0.1-10 mg per kilogram of body weight, especially preferably 0.25-10 mg per kilogram of body weight, per daily amount of the composition to be taken by animals including humans. Especially in the case in which andrographolide is to be orally administered to humans (adult) to obtain anti-fatigue action, it is generally suitable to administer 0.1-100 mg of andrographolide, preferably 0.1-50 mg, more preferably 0.1-10 mg, especially preferably 0.25-10 mg, per daily amount of andrographolide to be taken.

[3] = Stability of andrographolide; type: physicochemical
From the text: Thus andrographolide can be contained in the composition of the present invention without being processed or made into various forms according to the purpose by use of methods that are publicly known among people skilled in the art; for instance, it can be made into food, drink, seasoning, alcoholic beverages, functional food, pharmaceuticals, or the like. Especially the composition of the present invention can be made into pharmaceuticals for oral administration or food (e.g., functional food, dietary supplement, food with nutrient function, food for specified use, food for specified health use, nutritional supplement, health food, food for diet therapy, general health food, supplements).

C=C1CC[C@@H]2[C@](C)(CO)[C@H](O)CC[C@@]2(C)[C@@H]1C/C=C1/C(=O)OC[C@H]1O [andrographolide]
abnormality after administration [1]: no abnormality was observed | reduction in the swimming time (Balb/c mice; 0.25 mg per kilogram of body weight orally once daily during two days of water immersion, FIG. 1(B)): prevented reduction in the swimming time | reduction in the swimming time (Balb/c mice; 200 mg per kilogram of body weight orally once daily during two days of water immersion, FIG. 1(C)): prevented reduction in the swimming time | toxicity to the mice (Balb/c mice; 200 mg per kilogram of body weight orally once daily for two days): no toxicity to the mice was observed | reduction in the swimming time (Balb/c mice; 0.5, 2, 8 mg per kilogram of body weight orally once daily during two days of water immersion, FIG. 1(A)): prevented in a dose-dependent manner | shortening of the swimming time (Balb/c mice; Example 5, FIG. 5, andrographolide 0.25 mg/kg (5a), alpha-lipoic acid 50 mg/kg (5b) or both (5c), orally once daily during two days of water immersion): prevented from shortening | increase rate of the swimming time (Balb/c mice; Example 5, swimming time of normally-reared group minus water-immersed control group = 100%, andrographolide 0.25 mg/kg, alpha-lipoic acid 50 mg/kg, alone or combined): 5% | intake producing desired anti-fatigue action ([2]; taken in advance or during fatigue stress to prevent or reduce mental, physical and organ fatigue): 0.25-200 mg per kilogram of body weight | intake producing desired anti-fatigue action ([2]; taken in to promote recovery from physical fatigue already developed): 0.5-8 mg per kilogram of body weight | stability to pH, moisture, oxidation, light, heat [3]: high stability
